Measured values: patent US8987256B2, “Oxo-heterocyclic substituted carboxylic acid derivatives and the use thereof” (Bayer Intellectual Property GmbH, priority 2008, dated 2015)
pEC50, pIC50: −log10 of the molar value.

Legend:
[1] = target: T1, recombinant guanylate cyclase reporter cell line (Rattus norvegicus, UniProt P20595); experiment: sGC-activating activity in the CHO reporter cell in vitro; format: cell-based
T1 construct: expressed in transfected cells; host or cells: CHO reporter cell line
T1 sequence (P20595 1-619): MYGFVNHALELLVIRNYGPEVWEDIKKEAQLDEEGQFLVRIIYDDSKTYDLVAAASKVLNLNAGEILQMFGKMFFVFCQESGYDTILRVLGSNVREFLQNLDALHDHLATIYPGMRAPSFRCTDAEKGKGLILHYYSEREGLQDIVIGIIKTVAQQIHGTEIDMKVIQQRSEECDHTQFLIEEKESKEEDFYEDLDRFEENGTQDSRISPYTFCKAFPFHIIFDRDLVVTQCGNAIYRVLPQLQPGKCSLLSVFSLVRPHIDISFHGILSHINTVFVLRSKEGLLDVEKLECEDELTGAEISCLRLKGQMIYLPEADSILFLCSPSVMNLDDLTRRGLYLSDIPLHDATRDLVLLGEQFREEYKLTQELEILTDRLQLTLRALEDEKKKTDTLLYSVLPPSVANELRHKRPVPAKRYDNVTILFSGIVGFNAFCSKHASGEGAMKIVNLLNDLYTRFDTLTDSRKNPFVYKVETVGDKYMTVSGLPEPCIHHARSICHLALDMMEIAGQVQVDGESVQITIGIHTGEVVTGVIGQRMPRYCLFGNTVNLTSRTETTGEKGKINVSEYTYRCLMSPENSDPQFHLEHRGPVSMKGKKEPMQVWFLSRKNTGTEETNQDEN
T1 sequence (P19686 1-690 partner): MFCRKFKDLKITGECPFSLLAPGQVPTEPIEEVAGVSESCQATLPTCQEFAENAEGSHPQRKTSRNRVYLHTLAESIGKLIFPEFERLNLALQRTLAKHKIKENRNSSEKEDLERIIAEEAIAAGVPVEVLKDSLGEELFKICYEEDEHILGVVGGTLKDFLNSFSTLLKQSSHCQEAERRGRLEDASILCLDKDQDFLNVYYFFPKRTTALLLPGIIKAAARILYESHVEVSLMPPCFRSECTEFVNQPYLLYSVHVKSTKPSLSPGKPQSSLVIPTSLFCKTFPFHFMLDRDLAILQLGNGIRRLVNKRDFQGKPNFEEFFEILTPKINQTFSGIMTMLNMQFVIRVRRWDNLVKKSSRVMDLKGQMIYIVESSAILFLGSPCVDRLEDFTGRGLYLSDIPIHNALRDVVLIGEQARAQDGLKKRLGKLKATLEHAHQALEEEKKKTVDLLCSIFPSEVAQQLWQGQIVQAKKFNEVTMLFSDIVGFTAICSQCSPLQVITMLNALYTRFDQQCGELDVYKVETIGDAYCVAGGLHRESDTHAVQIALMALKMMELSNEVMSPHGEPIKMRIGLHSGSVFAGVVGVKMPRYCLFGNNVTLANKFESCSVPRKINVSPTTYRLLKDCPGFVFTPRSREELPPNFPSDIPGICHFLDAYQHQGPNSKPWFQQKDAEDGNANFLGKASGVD
Protocol: The cellular action of the compounds according to the invention is determined at a recombinant guanylate cyclase reporter cell line, as described in F. Wunder et al., Anal. Biochem. 339, 104-112 (2005).

[2] = target: T2, soluble guanylate cyclase (sGC) (Rattus norvegicus, UniProt P20595); experiment: Activating action at the sGC enzyme in vitro (PPi detection, luciferase); format: biochemical; settings: for pEC50: read-out: EC50 (concentration at 50% of maximum efficacy), activating action at the sGC enzyme
T2 construct: made in house; host or cells: baculovirus/Sf9 insect cells
T2 sequence (P20595 1-619): T1 sequence (P20595 1-619)
T2 sequence (P19686 1-690 partner): T1 sequence (P19686 1-690 partner)
Protocol: Soluble guanylate cyclase (sGC) converts on stimulation GTP into cGMP and pyrophosphate (PPi). PPi is detected with the aid of the assay described below. The signal produced in the assay increases as the reaction progresses and serves as a measure of the sGC enzyme activity under the given stimulation.
To carry out the assay, 29 μl of enzyme solution [0-10 nM soluble guanylate cyclase (prepared according to Honicka et al., J. Mol. Med. 77, 14-23 (1999)) in 50 mM TEA, 2 mM MgCl2, 0.1% BSA (fraction V), 0.005% Brij®, pH 7.5] are initially introduced into a microplate, and 1 μl of the substance to be tested (as a serially diluted solution in DMSO) is added. The mixture is incubated at room temperature for 10 min. Then 20 μl of detection mix [1.2 nM Firefly Luciferase (Photinus pyralis luciferase, Promega), 29 μM dehydroluciferin (prepared according to Bitler & McElroy, Arch. Biochem. Biophys. 72, 358 (1957)), 122 μM luciferin (Promega), 153 μM ATP (Sigma) and 0.4 mM DTT (Sigma) in 50 mM TEA, 2 mM MgCl2, 0.1% BSA (fraction V), 0.005% Brij®, pH 7.5] are added. The enzyme reaction is started by adding 20 μl of substrate solution [1.25 mM guanosine 5′-triphosphate (Sigma) in 50 mM TEA, 2 mM MgCl2, 0.1% BSA (fraction V), 0.005% Brij®, pH 7.5] and measured continuously in a luminometer. The extent of the stimulation by the substance to be tested can be determined relative to the signal of the unstimulated reaction.
The activation of heme-free guanylate cyclase is examined by addition of 25 μM of 1H-1,2,4-oxadiazolo[4,3-a]quinoxalin-1-one (ODQ) to the enzyme solution and subsequent incubation for 30 minutes and compared to the stimulation of the native enzyme.

saphenous artery rings = experiment: Vasorelaxant effect in vitro (phenylephrine-contracted artery rings); parameters: species or system Rabbits; settings: Oryctolagus cuniculus, concentration reducing phenylephrine-induced contraction by 50%
Protocol: Rabbits are anesthetized and sacrificed by intravenous injection of thiopental sodium (about 50 mg/kg) and exsanguinated. The saphenous artery is removed and divided into rings 3 mm wide. The rings are mounted singly on in each case a pair of triangular hooks open at the end and made of 0.3 mm-thick special wire (Remanium®). Each ring is placed under an initial tension in 5 ml organ baths with Krebs-Henseleit solution which is at 37° C., is gassed with carbogen and has the following composition: NaCl 119 mM; KCl 4.8 mM; CaCl2×2H2O 1 mM; MgSO4×7H2O 1.4 mM; KH2PO4 1.2 mM; NaHCO3 25 mM; glucose 10 mM; bovine serum albumin 0.001%. The force of contraction is detected with Statham UC2 cells, amplified and digitized via A/D converters (DAS-1802 HC, Keithley Instruments, Munich) and recorded in parallel on chart recorders. Contractions are induced by addition of phenylephrine.
After several (generally 4) control cycles, the substance to be investigated is added in each further run in increasing dosage, and the level of the contraction achieved under the influence of the test substance is compared with the level of the contraction reached in the last preceding run. The concentration necessary to reduce the contraction reached in the preceding control by 50% is calculated from this (IC50). The standard application volume is 5 μl. The proportion of DMSO in the bath solution corresponds to 0.1%.

Row | Compound | MEC (minimum effective concentration), sGC-activating activity in the CHO reporter cell [1] | MEC (minimum effective concentration), activating action at the sGC enzyme [2] | pEC50 [2] | pIC50 (saphenous artery rings)
1 | O=C(Nc1cccc(CC2(C(=O)O)CC2)c1)C(c1ccc(CN2N=C(c3ccccc3)OCC2=O)cc1)C1CCC(F)(F)C1 (single isomer, unassigned) [Example 241, 1-(3-{[(3,3-Difluorocyclopentyl) {4-[(5-oxo-2-phenyl-5,6-dihydro-4H-1,3,4-oxadiazin-4-yl)-methyl]phenyl}acetyl]amino}benzyl)cyclopropanecarboxylic acid] | 3 nM | 1.2 nM | 7.77 | 
2 | CCC(C)C(C(=O)Nc1cccc(CC(C)(C)C(=O)O)c1)c1ccc(CN2N=C(c3ccccc3)OCC2=O)cc1 (centres unmarked) [Example 143, 2,2-dimethyl-3-{3-[(3-methyl-2-{4-[(5-oxo-2-phenyl-5,6-dihydro-4H-1,3,4-oxadiazin-4-yl)methyl]phenyl}-pentanoyl)amino]phenyl}propanoic acid] | 3 nM |  |  | 6.46
3 | CCC(C(C(=O)Nc1cccc(CC2(C(=O)O)CC2)c1)c1ccc(CN2N=C(c3ccccc3)OCC2=O)cc1)C(F)(F)F (centres unmarked) [Example 170, 1-(3-{[2-{4-[(5-oxo-2-phenyl-5,6-dihydro-4H-1,3,4-oxadiazin-4-yl)methyl]phenyl}-3-(trifluoromethyl)-pentanoyl]amino}benzyl)cyclopropanecarboxylic acid] | 3 nM | 1 nM | 7.96 | 
4 | Cc1ccc(=O)n(Cc2ccc(C(C(=O)Nc3cccc(CC4(C(=O)O)CC4)c3)C3CCCC3)cc2)n1 (centres unmarked) [Example 171, 1-{3-[(cyclopentyl{4-[(3-methyl-6-oxopyridazin-1(6H)-yl)methyl]phenyl}acetyl)amino]benzyl}-cyclopropanecarboxylic acid] | 30 nM | 3.7 nM | 7.23 | 
5 | O=C(Nc1cccc(CC2(C(=O)O)CC2)c1)C(c1ccc(Cn2ccc(C(F)(F)F)cc2=O)cc1)C1CCCC1 (centres unmarked) [Example 176, 1-(3-{[cyclopentyl(4-{[2-oxo-4-(trifluoromethyl)-pyridin-1(2H)-yl]methyl}phenyl)acetyl]amino}-benzyl)cyclopropanecarboxylic acid] | 30 nM | 10 nM | 6.49 | 
6 | CC(C(C(=O)Nc1cccc(CCC(=O)O)c1Cl)c1ccc(CN2N=C(c3ccccc3)OCC2=O)cc1)C(F)(F)F (centres unmarked) [Example 184, 3-{2-chloro-3-[(4,4,4-trifluoro-3-methyl-2-{4-[(5-oxo-2-phenyl-5,6-dihydro-4H-1,3,4-oxadiazin-4-yl)methyl]-phenyl}butanoyl)amino]phenyl}propanoic acid] | 3 nM | 7 nM | 6.62 | 
7 | C[C@H]([C@H](C(=O)Nc1cccc(CC2(C(=O)O)CC2)c1)c1ccc(CN2Cc3ccccc3C2=O)cc1)C(F)(F)F [Example 207] | 3 nM | 0.5 nM | 7.96 | 
8 | O=C(Nc1cccc(CC2(C(=O)O)CC2)c1)C(c1ccc(CN2Cc3c(F)cccc3C2=O)cc1)C1CCCC1 (centres unmarked) [Example 213] | 3 nM | 1.2 nM | 7.62 | 
9 | C[C@H]([C@H](C(=O)Nc1cccc(CC2(C(=O)O)CC2)c1)c1ccc(CN2Cc3c(F)cccc3C2=O)cc1)C(F)(F)F [Example 219] | 0.2 nM | 0.2 nM | 8.44 | 
10 | C[C@@H]([C@@H](C(=O)Nc1cccc(CC2(C(=O)O)CC2)c1)c1ccc(CN2Cc3c(F)cccc3C2=O)cc1)C(F)(F)F [Example 220] | 0.3 nM | 2 nM | 7.12 | 
11 | O=C(O)CCc1cc(F)cc(NC(=O)C(c2ccc(CN3N=C(c4ccccc4)OCC3=O)cc2)C2CCCC2)c1 (centres unmarked) [Example 230] | 30 nM | 8.1 nM | 6.38 | 
12 | O=C(Nc1cc(CC2(C(=O)O)CC2)ccc1F)C(c1ccc(CN2N=C(c3ccccc3)OCC2=O)cc1)C1CCCC1 (centres unmarked) [Example 231] | 0.2 nM | 0.4 nM | 8.28 | 
13 | O=C(O)CCc1cc(NC(=O)C(c2ccc(CN3N=C(c4ccccc4)OCC3=O)cc2)C2CCCC2)ccc1F (centres unmarked) [Example 232] | 20 nM | 93 nM | 5.96 | 
14 | O=C(Nc1cccc(CC2(C(=O)O)CC2)c1F)C(c1ccc(CN2N=C(c3ccccc3)OCC2=O)cc1)C1CCCC1 (centres unmarked) [Example 233] | 0.3 nM | 3.3 nM | 7.11 | 
15 | O=C(Nc1ccc(F)c(CC2(C(=O)O)CC2)c1)C(c1ccc(CN2N=C(c3ccccc3)OCC2=O)cc1)C1CCCC1 (centres unmarked) [Example 234] | 1 nM | 4.1 nM | 6.66 | 
